In patent US10765114B2, “4-amino-6-(pyridyl and 2-substitutedphenyl)-picolinates and 6-amino-2-(pyridyl and 2-substitutedphenyl)-pyrimidine-4-carboxylates and their use as herbicides” (Dow AgroSciences LLC, priority 2013, dated 2020):
Like-named read-outs stand apart in the source and are kept apart here.

Assays:
[1] = tested on: Key Grass and Sedge Weeds as well as Grass Crops; assay: Post-Emergent Test II (Table 6); assay type: in vivo; conditions: post-emergence, 336 h, 14 days after application; for pest or weed control at 70 g/ha: 70 g ai/ha; for pest or weed control at 140 g/ha: 140 g ai/ha
In short: (§1)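 Post-emergence greenhouse spray, 1st-2nd true leaf stage; track sprayer, 187 L/ha; acetone/DMSO stock diluted in aqueous acetone/IPA/DMSO with Atplus 411F and Triton X-155; rates 1× to 1/16×; subirrigated; visual injury 0 (none) to 100% (complete kill) at 14 days.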

[2] = tested on: Key Broadleaf Weed and Crop Species; assay: Post-Emergent Test II (Table 5); assay type: in vivo; conditions: post-emergence, 336 h; for pest or weed control at 70 g/ha: application rate 70 (kg ai/ha; footnote: g ai/ha); for pest or weed control at 140 g/ha: application rate 140 (kg ai/ha; footnote: g ai/ha)
In short: as §1

[3] = CYPSS, read-out: Visual Growth Reduction (%) 14 Days After Application CYPSS
[4] = DIGSA: crabgrass (Digitaria sanguinalis), read-out: Visual Growth Reduction (%) 14 Days After Application DIGSA
[5] = ECHSS, read-out: Visual Growth Reduction (%) 14 Days After Application ECHSS
[6] = ORYSS (crop), read-out: Visual Growth Reduction (%) 14 Days After Application ORYSS
[7] = SETFA: giant foxtail (Setaria faberi), read-out: Visual Growth Reduction (%) 14 Days After Application SETFA
[8] = SORVU: grain sorghum (Sorghum vulgare), read-out: Visual Growth Reduction (%) 14 Days After Application SORVU
[9] = TRZSS (crop), read-out: Visual Growth Reduction (%) 14 Days After Application TRZSS
[10] = ZEAMX: maize, corn (Zea mays), read-out: Visual Growth Reduction (%) 14 Days After Application ZEAMX
[11] = Abutilon theophrasti, ABUTH: velvetleaf (Abutilon theophrasti), read-out: Visual Growth Reduction (%) 14 Days After Application ABUTH
[12] = Amaranthus retroflexus, AMARE: redroot pigweed (Amaranthus retroflexus), read-out: Visual Growth Reduction (%) 14 Days After Application AMARE
[13] = Brassica napus, BRSSS: oilseed rape, canola (Brassica napus), read-out: Visual Growth Reduction (%) 14 Days After Application BRSSS
[14] = Chenopodium album, CHEAL: lambsquarters (Chenopodium album), read-out: Visual Growth Reduction (%) 14 Days After Application CHEAL
[15] = Euphorbia heterophylla, EPHHL: wild poinsettia (Euphorbia heterophylla), read-out: Visual Growth Reduction (%) 14 Days After Application EPHHL
[16] = Helianthus annuus, HELAN: sunflower (Helianthus annuus), read-out: Visual Growth Reduction (%) 14 Days After Application HELAN
[17] = Viola tricolor, VIOTR: wild pansy (Viola tricolor), read-out: Visual Growth Reduction (%) 14 Days After Application VIOTR

Row | Compound | pest or weed control at 70 g/ha [1, 3] | pest or weed control at 140 g/ha [1, 3] | pest or weed control at 70 g/ha [1, 4] | pest or weed control at 140 g/ha [1, 4] | pest or weed control at 70 g/ha [1, 5] | pest or weed control at 140 g/ha [1, 5] | pest or weed control at 70 g/ha [1, 6] | pest or weed control at 140 g/ha [1, 6] | pest or weed control at 70 g/ha [1, 7] | pest or weed control at 140 g/ha [1, 7] | pest or weed control at 70 g/ha [1, 8] | pest or weed control at 140 g/ha [1, 8] | pest or weed control at 70 g/ha [1, 9] | pest or weed control at 140 g/ha [1, 9] | pest or weed control at 70 g/ha [1, 10] | pest or weed control at 140 g/ha [1, 10] | pest or weed control at 70 g/ha [2, 11] | pest or weed control at 140 g/ha [2, 11] | pest or weed control at 70 g/ha [2, 12] | pest or weed control at 70 g/ha [2, 13] | further results
1 | COC(=O)c1nc(-c2ccc(C(F)(F)F)nc2F)c(F)c(N)c1Cl [Compound 24] | 45 to 59% | 95 to 100% | 0 to 29% | 75 to 84% | 45 to 59% | 60 to 74% | 0 to 29% | 0 to 29% | 75 to 84% | 75 to 84% | 30 to 44% | 45 to 59% | 0 to 29% | 0 to 29% | 0 to 29% | 95 to 100% | 75 to 84% | 75 to 84% | 75 to 84% | 60 to 74% | pest or weed control at 140 g/ha [2, 12]: 95 to 100%; pest or weed control at 140 g/ha [2, 13]: 75 to 84%; pest or weed control at 70 g/ha [2, 14]: 95 to 100%; pest or weed control at 140 g/ha [2, 14]: 95 to 100%; pest or weed control at 70 g/ha [2, 15]: 85 to 94%; pest or weed control at 140 g/ha [2, 15]: 85 to 94%; pest or weed control at 70 g/ha [2, 16]: 95 to 100%; pest or weed control at 140 g/ha [2, 16]: 95 to 100%; pest or weed control at 70 g/ha [2, 17]: 0 to 29%; pest or weed control at 140 g/ha [2, 17]: 0 to 29%; melting point: 128 °C
2 | COC(=O)c1nc(-c2ccc(OC)nc2Cl)c(F)c(N)c1Cl [Compound 88, methyl 4-amino-2′,5-dichloro-3-fluoro-6′-methoxy-[2,3′-bipyridine]-6-carboxylate] | 0 to 29% | 0 to 29% | 0 to 29% | 0 to 29% | 0 to 29% | 0 to 29% | 0 to 29% | 0 to 29% | 0 to 29% | 45 to 59% | 0 to 29% | 0 to 29% | 0 to 29% | 0 to 29% | 0 to 29% | 0 to 29% | 75 to 84% | 95 to 100% | 85 to 94% | 85 to 94% | pest or weed control at 140 g/ha [2, 13]: 85 to 94%; pest or weed control at 70 g/ha [2, 14]: 95 to 100%; pest or weed control at 140 g/ha [2, 14]: 95 to 100%; pest or weed control at 70 g/ha [2, 15]: 0 to 29%; pest or weed control at 140 g/ha [2, 15]: 0 to 29%; pest or weed control at 70 g/ha [2, 16]: 75 to 84%; pest or weed control at 140 g/ha [2, 16]: 85 to 94%; pest or weed control at 70 g/ha [2, 17]: 0 to 29%; pest or weed control at 140 g/ha [2, 17]: 0 to 29%; melting point: 164 to 165 °C
3 | COC(=O)c1nc(-c2ccc(C(F)(F)F)nc2)c(C)c(N)c1Cl [Compound 32] | 95 to 100% | 95 to 100% | 75 to 84% | 75 to 84% | 85 to 94% | 85 to 94% | 0 to 29% | 0 to 29% | 85 to 94% | 85 to 94% | 60 to 74% | 75 to 84% | 60 to 74% | 60 to 74% | 60 to 74% | 60 to 74% | 45 to 59% | 85 to 94% | 0 to 29% | 60 to 74% | pest or weed control at 140 g/ha [2, 12]: 0 to 29%; pest or weed control at 140 g/ha [2, 13]: 75 to 84%; pest or weed control at 70 g/ha [2, 14]: 85 to 94%; pest or weed control at 140 g/ha [2, 14]: 85 to 94%; pest or weed control at 70 g/ha [2, 15]: 0 to 29%; pest or weed control at 140 g/ha [2, 15]: 0 to 29%; pest or weed control at 70 g/ha [2, 16]: 95 to 100%; pest or weed control at 140 g/ha [2, 16]: 95 to 100%; pest or weed control at 70 g/ha [2, 17]: 45 to 59%; pest or weed control at 140 g/ha [2, 17]: 75 to 84%; melting point: 145 °C
4 | COC(=O)c1nc(-c2ccc(Cl)c(F)c2C)c(F)c(N)c1Cl [Compound 68] | 0 to 29% | 0 to 29% | 0 to 29% | 0 to 29% | 0 to 29% | 0 to 29% | 0 to 29% | 0 to 29% | 0 to 29% | 0 to 29% | 0 to 29% | 0 to 29% | 0 to 29% | 0 to 29% | 0 to 29% | 0 to 29% | 95 to 100% | 95 to 100% | 95 to 100% | 85 to 94% | pest or weed control at 140 g/ha [2, 12]: 95 to 100%; pest or weed control at 140 g/ha [2, 13]: 95 to 100%; pest or weed control at 70 g/ha [2, 14]: 95 to 100%; pest or weed control at 140 g/ha [2, 14]: 95 to 100%; pest or weed control at 70 g/ha [2, 15]: 0 to 29%; pest or weed control at 140 g/ha [2, 15]: 0 to 29%; pest or weed control at 70 g/ha [2, 16]: 95 to 100%; pest or weed control at 140 g/ha [2, 16]: 95 to 100%; pest or weed control at 70 g/ha [2, 17]: 30 to 44%; pest or weed control at 140 g/ha [2, 17]: 30 to 44%; melting point: 154 to 156 °C
